# Experiments:
# HeLa cells [1] = test: Flow cytometry quantification of TAMRA-R8 uptake; format: cell-based; conditions: TAMRA-R8 3 μM, activator 10-250 nM, 25 min, flow cytometry mean fluorescence intensity, quadruplicate
# Method: (§1) Success in artificial vesicle assays encouraged us to conduct transport experiments of fluorescently labeled peptides in living cells (Figure 5). We first employed confocal fluorescence microscopy to evaluate counterion activator 2 for the intracellular transport of a carboxytetramethylrhodamine-labeled R8 peptide (TAMRA-R8) into the cytosol of HeLa cells. Cationic peptides usually remain trapped inside the endosomes when incubated with cells at low μM concentrations.[32],[44] […] The cytometry experiments validated the E isomer selective transport and indicated a four-fold intracellular delivery enhancement (Figure 5C and Figure S52). […]
# (§2) Confocal microscopy assays. […] Fluorescence of Hoechst was excited with the 405 nm laser and the emission was detected at 450/50 nm; for the TAMRA fluorescence, an excitation of 561 nm was used while the emission was detected at 620/60 nm. […]
# (§3) Flow cytometry assays. […] TAMRA fluorescence was excited at 532 nm (green laser) and […]
# measured on a Guava easyCyte BG HT collecting the emission at 583/26 nm (Yellow-G channel), using InCyte v3.2 (GuavaSoft, Millipore). Cells with typical FSC and SSC parameters were selected and the mean fluorescence intensity was calculated for each sample. Each condition was measured in quadruplicate. […]
# HeLa cells [2] = test: Confocal fluorescence microscopy of TAMRA-R8 cellular uptake; format: cell-based; conditions: TAMRA-R8 3 μM with activator (10, 50, 100, 250 nM), 25 min at 37 °C
# Method: as §1
# Figure 5 (A) Schematic representation of oligoarginine intracellular delivery by both isomers of 2. (B) Confocal fluorescence microscopy images of the cellular uptake of 3 μM TAMRA-R8 (in red) facilitated by E-2/Z-2. […] (C) Fluorescence intensity of HeLa cells incubated with 3 μM TAMRA-R8 in the presence of different E-2/Z-2 concentrations, measured by flow cytometry. […]
# as §2, §3
smiles,measurement,setting,value
CCCCc1ccc(/N=N/c2ccc(OCCCOc3c4cc(S(=O)(=O)[O-])cc3Cc3cc(S(=O)(=O)[O-])cc(c3O)Cc3cc(S(=O)(=O)[O-])cc(c3O)Cc3cc(S(=O)(=O)[O-])cc(c3O)C4)cc2)cc1.[Li+].[Li+].[Li+].[Li+] [E-2],"Intracellular delivery enhancement of TAMRA-R8, E isomer relative to Z isomer",HeLa cells [1],four-fold
same,Intracellular TAMRA-R8 fluorescence in the presence of activator,HeLa cells [2],"strong diffuse fluorescence signal in the cytosol, nucleus, and nucleolus"
